This note sets out measurements from patent US9513294B2, “Megastokes amino-triazolyl-BODIPY compounds and applications to live neuron staining and human serum albumin FA1 drug site probing” (National University of Singapore, priority 2012, dated 2016).

A short description of data set [1]: Absorbance and fluorescence emission spectra (SpectraMax M2). The class given is physicochemical. The note with it: MKAC compound library; for λmax Abs. (nm): absorbance maximum; for λmax Em. (nm): fluorescence emission maximum. A digest of the protocol:
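Absorbance and emission maxima measured on a SpectraMax M2 spectrophotometer, which also gave quantum yield data; analysis in GraphPrism.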

Data set [2] is described as follows: Quantum yield measurements versus Acridine Yellow in EtOH. The class given is physicochemical. The note with it: MKAC compound library; quantum yield. A digest of the protocol: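 Fluorescence quantum yield is relative to Acridine Yellow in EtOH (Φ 0.47), with excitation at 460 nm. Integrated emission at 510–700 nm was corrected for absorbance at the excitation wavelength and for solvent refractive index.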

The structures appear in SMILES notation.

With `CCCCCC(O)c1cn(-c2ccc3n2[B-](F)(F)[N+]2=C(N4CCc5ccccc5C4)C=CC2=C3c2ccc(NC(C)=O)cc2)nn1` (centres unmarked) [MKAC66-69], in data set [1], the “λmax Abs. (nm)” value is 469 nm and the “λmax Em. (nm)” value was found to be 579 nm. Besides, the “φ (%)” value in data set [2] was found to be 1.88%.
For `CC(=O)Nc1ccc(C2=C3C=CC(N4CCc5ccccc5C4)=[N+]3[B-](F)(F)n3c2ccc3-n2cc(CO)nn2)cc1` [MKAC66-70] the same measures were 468 nm, 582 nm and 1.44%.
For the compound `CC(=O)Nc1ccc(C2=C3C=CC(NCc4ccccc4C)=[N+]3[B-](F)(F)n3c2ccc3-n2cc(C3CC3)nn2)cc1` [MKAC101-4], in data set [1], the “λmax Abs. (nm)” value is given as 465 nm and the “λmax Em. (nm)” value is 563 nm. In addition, the “φ (%)” value in data set [2] was 23.84%.
For `CC(=O)Nc1ccc(C2=C3C=CC(NCc4ccccc4C)=[N+]3[B-](F)(F)n3c2ccc3-n2cc(C3CCCC3)nn2)cc1` [MKAC101-5] the same measures were 466 nm, 563 nm and 23.69%.
For the compound `CC(=O)Nc1ccc(C2=C3C=CC(NCc4ccccc4C)=[N+]3[B-](F)(F)n3c2ccc3-n2cc(CC3CCCCC3)nn2)cc1` [MKAC101-8], in data set [1], the “λmax Abs. (nm)” value was 465 nm and the “λmax Em. (nm)” value came out at 563 nm. Also, the “φ (%)” value in data set [2] is reported as 21.14%.
For the compound `CC(=O)Nc1ccc(C2=C3C=CC(NCc4ccccc4C)=[N+]3[B-](F)(F)n3c2ccc3-n2cc(CN(C)Cc3ccccc3)nn2)cc1` [MKAC101-18], the “λmax Abs. (nm)” value in data set [1] is given as 465 nm. In addition, in data set [2], the “φ (%)” value is 13.14%.
Take `CC(=O)Nc1ccc(C2=C3C=CC(NCc4ccccc4C)=[N+]3[B-](F)(F)n3c2ccc3-n2cc(CCc3ccccc3)nn2)cc1` [MKAC101-19]: in data set [1], the “λmax Abs. (nm)” value is reported as 464 nm and the “λmax Em. (nm)” value stood at 560 nm. Moreover, in data set [2], the “φ (%)” value was 23.26%.
For `CC(=O)Nc1ccc(C2=C3C=CC(NCc4ccccc4C)=[N+]3[B-](F)(F)n3c2ccc3-n2cc(CC(C)C)nn2)cc1` [MKAC101-43] the same measures were 465 nm, 562 nm and 20.12%.
Consider `CCCc1cn(-c2ccc3n2[B-](F)(F)[N+]2=C(NCc4ccccc4C)C=CC2=C3c2ccc(NC(C)=O)cc2)nn1` [MKAC101-48], for which, in data set [1], the “λmax Abs. (nm)” value was 465 nm and the “λmax Em. (nm)” value was found to be 562 nm. For the same compound, in data set [2], the “φ (%)” value was found to be 17.25%.
For `CCCCCC(O)c1cn(-c2ccc3n2[B-](F)(F)[N+]2=C(NCc4ccccc4C)C=CC2=C3c2ccc(NC(C)=O)cc2)nn1` (centres unmarked) [MKAC101-69], in data set [1], the “λmax Abs. (nm)” value was 461 nm and the “λmax Em. (nm)” value stood at 562 nm. In addition, the “φ (%)” value in data set [2] turned out to be 24.08%.
For `CC(=O)Nc1ccc(C2=C3C=CC(NCc4ccccc4C)=[N+]3[B-](F)(F)n3c2ccc3-n2cc(CO)nn2)cc1` [MKAC101-70] the same measures were 465 nm, 561 nm and 18.11%.
Taken in the same sequence, the figures for `CCCC(C)c1cn(-c2ccc3n2[B-](F)(F)[N+]2=C(NCc4ccccc4OCC)C=CC2=C3c2ccc(NC(C)=O)cc2)nn1` (centres unmarked) [MKAC103-3] were 465 nm, 561 nm and 23.42%.
As for `CCOc1ccccc1CNC1=[N+]2C(=C(c3ccc(NC(C)=O)cc3)c3ccc(-n4cc(C5CC5)nn4)n3[B-]2(F)F)C=C1` [MKAC103-4], in data set [1], the “λmax Abs. (nm)” value was 464 nm and the “λmax Em. (nm)” value turned out to be 565 nm. For the same compound, the “φ (%)” value in data set [2] came out at 24.86%.
Taken in the same sequence, the figures for `CCOc1ccccc1CNC1=[N+]2C(=C(c3ccc(NC(C)=O)cc3)c3ccc(-n4cc(C5CCCC5)nn4)n3[B-]2(F)F)C=C1` [MKAC103-5] were 465 nm, 562 nm and 18.11%.
Taken in the same sequence, the figures for `CCOc1ccccc1CNC1=[N+]2C(=C(c3ccc(NC(C)=O)cc3)c3ccc(-n4cc(CC5CCCCC5)nn4)n3[B-]2(F)F)C=C1` [MKAC103-8] were 465 nm, 562 nm and 25.32%.
For `CCOc1ccccc1CNC1=[N+]2C(=C(c3ccc(NC(C)=O)cc3)c3ccc(-n4cc(CN(C)Cc5ccccc5)nn4)n3[B-]2(F)F)C=C1` [MKAC103-18] the same measures were 465 nm, 560 nm and 18.63%.
On to `CCOc1ccccc1CNC1=[N+]2C(=C(c3ccc(NC(C)=O)cc3)c3ccc(-n4cc(CCc5ccccc5)nn4)n3[B-]2(F)F)C=C1` [MKAC103-19], for which, in data set [1], the “λmax Abs. (nm)” value stood at 464 nm and the “λmax Em. (nm)” value is listed as 562 nm. Besides, in data set [2], the “φ (%)” value is recorded as 29.05%.
For `CCOc1ccccc1CNC1=[N+]2C(=C(c3ccc(NC(C)=O)cc3)c3ccc(-n4cc(CC(C)C)nn4)n3[B-]2(F)F)C=C1` [MKAC103-43] the same measures were 465 nm, 560 nm and 22.79%.
Taken in the same sequence, the figures for `CCCc1cn(-c2ccc3n2[B-](F)(F)[N+]2=C(NCc4ccccc4OCC)C=CC2=C3c2ccc(NC(C)=O)cc2)nn1` [MKAC103-48] were 466 nm, 562 nm and 20.07%.
For the compound `CCCCCC(O)c1cn(-c2ccc3n2[B-](F)(F)[N+]2=C(NCc4ccccc4OCC)C=CC2=C3c2ccc(NC(C)=O)cc2)nn1` (centres unmarked) [MKAC103-69], in data set [1], the “λmax Abs. (nm)” value turned out to be 465 nm and the “λmax Em. (nm)” value came out at 561 nm. Besides, the “φ (%)” value in data set [2] turned out to be 20.91%.
Taken in the same sequence, the figures for `CCOc1ccccc1CNC1=[N+]2C(=C(c3ccc(NC(C)=O)cc3)c3ccc(-n4cc(CO)nn4)n3[B-]2(F)F)C=C1` [MKAC103-70] were 464 nm, 558 nm and 15.35%.
For `COc1ccc(OC)c(CNC2=[N+]3C(=C(c4ccc(NC(C)=O)cc4)c4ccc(-n5cc(C6CC6)nn5)n4[B-]3(F)F)C=C2)c1` [MKAC181-4] the same measures were 464 nm, 562 nm and 15.43%.
With `COc1ccc(OC)c(CNC2=[N+]3C(=C(c4ccc(NC(C)=O)cc4)c4ccc(-n5cc(C6CCCC6)nn5)n4[B-]3(F)F)C=C2)c1` [MKAC181-5], in data set [1], the “λmax Abs. (nm)” value is 464 nm and the “λmax Em. (nm)” value stood at 563 nm. The “φ (%)” value in data set [2] stood at 10.37%.
For `COc1ccc(OC)c(CNC2=[N+]3C(=C(c4ccc(NC(C)=O)cc4)c4ccc(-n5cc(CC6CCCCC6)nn5)n4[B-]3(F)F)C=C2)c1` [MKAC181-8] the same measures were 465 nm, 564 nm and 13.98%.
In the case of `COc1ccc(OC)c(CNC2=[N+]3C(=C(c4ccc(NC(C)=O)cc4)c4ccc(-n5cc(CN(C)Cc6ccccc6)nn5)n4[B-]3(F)F)C=C2)c1` [MKAC181-18], in data set [1], the “λmax Abs. (nm)” value is 464 nm and the “λmax Em. (nm)” value is 561 nm. Further, the “φ (%)” value in data set [2] amounted to 18.28%.
For the compound `COc1ccc(OC)c(CNC2=[N+]3C(=C(c4ccc(NC(C)=O)cc4)c4ccc(-n5cc(CCc6ccccc6)nn5)n4[B-]3(F)F)C=C2)c1` [MKAC181-19], in data set [1], the “λmax Abs. (nm)” value came out at 464 nm and the “λmax Em. (nm)” value was determined as 561 nm. In addition, in data set [2], the “φ (%)” value is 14.0%.
Taken in the same sequence, the figures for `COc1ccc(OC)c(CNC2=[N+]3C(=C(c4ccc(NC(C)=O)cc4)c4ccc(-n5cc(CC(C)C)nn5)n4[B-]3(F)F)C=C2)c1` [MKAC181-43] were 467 nm, 562 nm and 13.79%.
In the case of `CCCc1cn(-c2ccc3n2[B-](F)(F)[N+]2=C(NCc4cc(OC)ccc4OC)C=CC2=C3c2ccc(NC(C)=O)cc2)nn1` [MKAC181-48], in data set [1], the “λmax Abs. (nm)” value was determined as 465 nm and the “λmax Em. (nm)” value is on record as 561 nm. The “φ (%)” value in data set [2] was determined as 11.03%.
As for `COc1ccc(OC)c(CNC2=[N+]3C(=C(c4ccc(NC(C)=O)cc4)c4ccc(-n5cc(CO)nn5)n4[B-]3(F)F)C=C2)c1` [MKAC181-70], in data set [1], the “λmax Abs. (nm)” value was found to be 465 nm and the “λmax Em. (nm)” value is reported as 559 nm. The “φ (%)” value in data set [2] was 15.37%.
For `CC(=O)Nc1ccc(C2=C3C=CC(N(C)Cc4ccccc4)=[N+]3[B-](F)(F)n3c2ccc3-n2cc(C3CC3)nn2)cc1` [MKAC195-4] the same measures were 466 nm, 582 nm and 5.45%.
Regarding `CC(=O)Nc1ccc(C2=C3C=CC(N(C)Cc4ccccc4)=[N+]3[B-](F)(F)n3c2ccc3-n2cc(C3CCCC3)nn2)cc1` [MKAC195-5], in data set [1], the “λmax Abs. (nm)” value worked out at 467 nm and the “λmax Em. (nm)” value is 578 nm. In addition, the “φ (%)” value in data set [2] is given as 4.18%.
Take `CC(=O)Nc1ccc(C2=C3C=CC(N(C)Cc4ccccc4)=[N+]3[B-](F)(F)n3c2ccc3-n2cc(CC3CCCCC3)nn2)cc1` [MKAC195-8]: in data set [1], the “λmax Abs. (nm)” value was determined as 466 nm and the “λmax Em. (nm)” value was found to be 577 nm. Further, the “φ (%)” value in data set [2] was 3.65%.
Taken in the same sequence, the figures for `CC(=O)Nc1ccc(C2=C3C=CC(N(C)Cc4ccccc4)=[N+]3[B-](F)(F)n3c2ccc3-n2cc(CN(C)Cc3ccccc3)nn2)cc1` [MKAC195-18] were 465 nm, 575 nm and 1.85%.
Taken in the same sequence, the figures for `CC(=O)Nc1ccc(C2=C3C=CC(N(C)Cc4ccccc4)=[N+]3[B-](F)(F)n3c2ccc3-n2cc(CCc3ccccc3)nn2)cc1` [MKAC195-19] were 467 nm, 577 nm and 3.78%.
Taken in the same sequence, the figures for `CC(=O)Nc1ccc(C2=C3C=CC(N(C)Cc4ccccc4)=[N+]3[B-](F)(F)n3c2ccc3-n2cc(CC(C)C)nn2)cc1` [MKAC195-43] were 466 nm, 580 nm and 3.48%.
